Assay results: ChEMBL document CHEMBL3132769, “Fragment growing to retain or alter the selectivity of anchored kinase hinge-binding fragments” (Medchemcomm, 2014)

Assays:
[1] = biological target: Aurora kinase B (Homo sapiens) (UniProt Q96GD4); assay: Inhibition of human full length AurB expressed in baculovirus assessed as substrate phosphorylation using fluorescence-labelled peptides as substrate at 0.06 uM after 90 mins by microfluidic peptide phosphorylation assay
[2] = biological target: T1, Aurora kinase A (Homo sapiens) (UniProt O14965); assay: Inhibition of human full length AurA expressed in baculovirus assessed as substrate phosphorylation using fluorescence-labelled peptides as substrate at 420 uM after 90 mins by microfluidic peptide phosphorylation assay
T1 sequence (whole entry): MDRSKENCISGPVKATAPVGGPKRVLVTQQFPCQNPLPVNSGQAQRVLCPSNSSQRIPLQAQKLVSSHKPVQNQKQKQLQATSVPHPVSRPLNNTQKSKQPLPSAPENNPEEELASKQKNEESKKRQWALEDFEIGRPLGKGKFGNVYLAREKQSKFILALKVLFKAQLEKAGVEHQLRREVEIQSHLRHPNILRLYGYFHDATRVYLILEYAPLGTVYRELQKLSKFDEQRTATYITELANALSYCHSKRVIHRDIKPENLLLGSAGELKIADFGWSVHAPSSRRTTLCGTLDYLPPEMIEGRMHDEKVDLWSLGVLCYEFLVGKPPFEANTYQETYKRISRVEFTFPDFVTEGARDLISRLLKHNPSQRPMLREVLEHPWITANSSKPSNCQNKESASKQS

[3] = system: Tyrosine-protein kinase ABL1 (Homo sapiens), P00519 [H396P]; assay: Inhibition of human truncated ABL H396P mutant expressed in baculovirus assessed as substrate phosphorylation using fluorescence-labelled peptides as substrate at 420 uM after 90 mins by microfluidic peptide phosphorylation assay
[4] = biological target: T2, Serine/threonine-protein kinase DCLK2 (Homo sapiens) (UniProt Q8N568); assay: Inhibition of human full length DCAMKL2 expressed in baculovirus assessed as substrate phosphorylation using fluorescence-labelled peptides as substrate at […] after 90 mins by microfluidic peptide phosphorylation assay
T2 sequence (whole entry): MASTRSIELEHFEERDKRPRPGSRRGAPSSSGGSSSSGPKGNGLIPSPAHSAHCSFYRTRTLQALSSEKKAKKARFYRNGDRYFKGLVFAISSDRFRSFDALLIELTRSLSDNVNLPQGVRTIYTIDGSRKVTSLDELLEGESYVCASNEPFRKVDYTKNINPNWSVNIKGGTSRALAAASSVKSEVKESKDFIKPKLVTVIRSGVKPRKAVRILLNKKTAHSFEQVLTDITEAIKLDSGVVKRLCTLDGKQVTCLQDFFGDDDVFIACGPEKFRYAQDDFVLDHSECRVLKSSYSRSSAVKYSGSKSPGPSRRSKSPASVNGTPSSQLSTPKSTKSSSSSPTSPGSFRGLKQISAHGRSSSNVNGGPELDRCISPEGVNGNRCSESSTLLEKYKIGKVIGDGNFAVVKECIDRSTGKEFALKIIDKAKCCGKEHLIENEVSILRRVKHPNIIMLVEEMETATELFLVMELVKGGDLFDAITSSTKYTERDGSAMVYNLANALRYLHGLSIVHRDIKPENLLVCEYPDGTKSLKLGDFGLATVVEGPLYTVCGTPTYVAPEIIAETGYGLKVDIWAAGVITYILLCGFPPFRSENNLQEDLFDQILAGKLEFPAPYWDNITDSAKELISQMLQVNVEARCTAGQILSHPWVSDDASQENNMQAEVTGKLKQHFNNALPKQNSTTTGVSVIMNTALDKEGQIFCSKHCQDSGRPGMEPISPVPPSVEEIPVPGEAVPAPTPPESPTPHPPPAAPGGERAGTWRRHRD

[5] = system: Fibroblast growth factor receptor 2 (Homo sapiens), P21802 [N549H]; assay: Inhibition of human FGFR2 N549H mutant catalytic domain expressed in baculovirus assessed as substrate phosphorylation using fluorescence-labelled peptides as substrate at 0.1 uM after 90 mins by microfluidic peptide phosphorylation assay
[6] = biological target: Insulin receptor (Homo sapiens) (UniProt P06213); assay: Inhibition of human INSR catalytic domain expressed in baculovirus assessed as substrate phosphorylation using fluorescence-labelled peptides as substrate at 9 uM after 90 mins by microfluidic peptide phosphorylation assay
[7] = biological target: T3, Serine/threonine-protein kinase Chk1 (Homo sapiens) (UniProt O14757); assay: Inhibition of human full length CHK1 expressed in baculovirus assessed as substrate phosphorylation using fluorescence-labelled peptides as substrate at 8 uM after 90 mins by microfluidic peptide phosphorylation assay
T3 sequence (whole entry): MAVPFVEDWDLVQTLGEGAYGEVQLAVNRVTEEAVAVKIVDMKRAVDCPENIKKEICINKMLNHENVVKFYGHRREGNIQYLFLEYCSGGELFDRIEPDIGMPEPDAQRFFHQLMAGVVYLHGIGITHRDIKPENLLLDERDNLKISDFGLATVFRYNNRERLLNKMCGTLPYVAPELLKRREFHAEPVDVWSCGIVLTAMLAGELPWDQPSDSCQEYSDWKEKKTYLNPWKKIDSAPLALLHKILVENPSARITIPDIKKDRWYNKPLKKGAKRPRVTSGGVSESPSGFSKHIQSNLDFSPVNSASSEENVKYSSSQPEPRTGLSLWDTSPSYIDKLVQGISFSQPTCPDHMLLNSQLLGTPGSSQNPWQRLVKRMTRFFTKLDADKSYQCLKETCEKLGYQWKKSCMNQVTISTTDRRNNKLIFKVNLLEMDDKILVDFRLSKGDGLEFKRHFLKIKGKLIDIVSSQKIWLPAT

[8] = biological target: T1, Aurora kinase A (Homo sapiens); assay: Inhibition of human full length AurA expressed in baculovirus assessed as substrate phosphorylation using fluorescence-labelled peptides as substrate at 2 uM after 90 mins by microfluidic peptide phosphorylation assay
[9] = biological target: Protein kinase C alpha type (Homo sapiens) (UniProt P17252); assay: Inhibition of human truncated PKC alpha expressed in baculovirus assessed as substrate phosphorylation using fluorescence-labelled peptides as substrate at 2 uM after 90 mins by microfluidic peptide phosphorylation assay
[10] = biological target: Serine/threonine-protein kinase pim-1 (Homo sapiens) (UniProt P11309); assay: Inhibition of human full length PIM1 expressed in baculovirus assessed as substrate phosphorylation using fluorescence-labelled peptides as substrate at 2 uM after 90 mins by microfluidic peptide phosphorylation assay
Sequence of Serine/threonine-protein kinase pim-1 (Homo sapiens) (P11309 whole entry, looked up): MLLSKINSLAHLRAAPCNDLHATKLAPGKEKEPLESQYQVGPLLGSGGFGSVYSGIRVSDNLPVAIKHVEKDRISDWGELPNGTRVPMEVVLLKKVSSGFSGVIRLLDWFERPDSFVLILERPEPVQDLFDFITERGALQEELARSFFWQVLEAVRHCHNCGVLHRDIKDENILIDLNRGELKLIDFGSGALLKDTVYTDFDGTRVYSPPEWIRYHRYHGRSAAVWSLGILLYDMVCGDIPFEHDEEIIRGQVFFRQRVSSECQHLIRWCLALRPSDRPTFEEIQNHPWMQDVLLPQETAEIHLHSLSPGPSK

Sequence of Fibroblast growth factor receptor 2 (Homo sapiens), P21802 [N549H] (P21802 whole entry N549H, the tested form may be a part): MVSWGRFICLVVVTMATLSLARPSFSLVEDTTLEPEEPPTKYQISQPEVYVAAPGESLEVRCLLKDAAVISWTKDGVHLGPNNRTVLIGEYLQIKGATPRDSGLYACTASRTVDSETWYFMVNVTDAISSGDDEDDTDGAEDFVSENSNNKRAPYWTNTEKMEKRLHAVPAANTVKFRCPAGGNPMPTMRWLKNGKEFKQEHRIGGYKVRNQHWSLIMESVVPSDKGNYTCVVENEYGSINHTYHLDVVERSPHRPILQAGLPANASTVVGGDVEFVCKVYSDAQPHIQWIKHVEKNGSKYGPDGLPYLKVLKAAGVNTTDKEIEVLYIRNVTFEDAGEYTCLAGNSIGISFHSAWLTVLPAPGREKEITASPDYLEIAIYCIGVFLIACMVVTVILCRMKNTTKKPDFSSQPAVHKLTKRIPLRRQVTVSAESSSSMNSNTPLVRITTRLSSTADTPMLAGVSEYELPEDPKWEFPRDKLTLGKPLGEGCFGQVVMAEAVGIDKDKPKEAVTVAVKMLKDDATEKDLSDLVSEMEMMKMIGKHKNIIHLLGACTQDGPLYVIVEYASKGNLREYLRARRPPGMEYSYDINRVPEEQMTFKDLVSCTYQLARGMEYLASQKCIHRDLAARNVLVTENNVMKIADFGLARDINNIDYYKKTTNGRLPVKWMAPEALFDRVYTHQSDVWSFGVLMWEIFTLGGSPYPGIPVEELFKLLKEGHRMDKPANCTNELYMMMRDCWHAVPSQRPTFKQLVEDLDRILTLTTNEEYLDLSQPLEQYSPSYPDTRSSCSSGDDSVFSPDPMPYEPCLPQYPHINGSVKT
Sequence of Aurora kinase B (Homo sapiens) (Q96GD4 whole entry): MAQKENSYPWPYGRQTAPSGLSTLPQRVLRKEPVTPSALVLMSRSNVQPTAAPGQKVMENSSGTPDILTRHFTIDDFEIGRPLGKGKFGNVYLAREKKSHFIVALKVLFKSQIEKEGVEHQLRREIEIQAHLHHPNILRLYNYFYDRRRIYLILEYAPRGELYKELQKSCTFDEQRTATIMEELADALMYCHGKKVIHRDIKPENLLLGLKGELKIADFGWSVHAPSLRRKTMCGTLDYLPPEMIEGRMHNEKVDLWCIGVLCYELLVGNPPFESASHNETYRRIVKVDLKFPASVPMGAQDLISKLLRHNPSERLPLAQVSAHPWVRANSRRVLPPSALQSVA

Question: Which inhibition [1] does the source give for `NC1(Cc2ccc(Cl)cc2)CCN(c2ncnc3[nH]ccc23)CC1` here?
Answer: 0%

Question: `c1nc(N2CCOCC2)c2nc[nH]c2n1` was tested. Which inhibition [2] did it give?
Answer: 96%

Question: And the inhibition [3]?
Answer: 71%

Question: How did the inhibition [4] turn out when `COC(=O)c1cnc(Nc2cnc(C#N)cn2)cc1NCC1CCNCC1` was run?
Answer: 4.5%

Question: Which inhibition [5] does the source give for `C[C@H](CN(C)C)Oc1nc(Nc2cc3cccc(Cl)c3cn2)cnc1C#N` here?
Answer: 7.5%

Question: `NCC1CN(c2ncnc3[nH]c4cnccc4c23)CCO1` (stereo not given) was tested. Which inhibition [6] did it give?
Answer: 2.5%

Question: How did the inhibition [7] turn out when `NCC1CCN(c2ncnc3[nH]ccc23)CC1` was run?
Answer: 0%

Question: Which inhibition [8] does the source give for `NC1CCN(c2ncnc3[nH]ccc23)CC1` here?
Answer: 64.5%

Question: And the inhibition [9]?
Answer: 18%

Question: What about the inhibition [10] of the same compound?
Answer: 2%
